According to patent US11066414B2, “Cot modulators and methods of use thereof” (Gilead Sciences, Inc., priority 2015, dated 2021):
Where two headings read alike, the source gives them in different places.

Assays:
Human Cot = Human Cot (Homo sapiens (Human), UniProt P41279); test: High Throughput Cot Biochemical Assay; conditions: Cot HTRF (TR-FRET) biochemical assay
TNFα = test: Cot Monocyte TNFα Cell Based Assay
[1] = Homo sapiens, Monocyte, read-out: EC50 TNF, LPS-stimulated human monocytes, TNFα
[2] = read-out: EC50 TNF, LPS-stimulated human monocytes, TNFα

Sequence of Human Cot (P41279 30-397): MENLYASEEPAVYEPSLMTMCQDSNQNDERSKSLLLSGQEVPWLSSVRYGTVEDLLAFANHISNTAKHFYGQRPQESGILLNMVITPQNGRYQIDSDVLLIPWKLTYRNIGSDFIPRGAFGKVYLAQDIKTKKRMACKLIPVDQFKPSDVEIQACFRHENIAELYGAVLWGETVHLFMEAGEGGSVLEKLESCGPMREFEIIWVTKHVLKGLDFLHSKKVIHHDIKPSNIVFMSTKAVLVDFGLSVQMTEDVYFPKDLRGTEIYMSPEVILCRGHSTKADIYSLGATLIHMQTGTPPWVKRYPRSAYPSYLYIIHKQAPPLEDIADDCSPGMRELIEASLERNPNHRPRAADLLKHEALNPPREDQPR

SMILES | IC50 (Human Cot; IC50 HTRF) | EC50 (TNFα; [1]) | IC50 (Human Cot; read-out: IC50 HTRF) | EC50 (TNFα; [2])
Cc1nc(F)ccc1[C@H](Nc1cc(C#N)c2ncc(C#N)c(NCC(C)(C)C)c2c1)c1cn([C@@H]2C[C@@H]2F)nn1 [Example 622, 6-(((S)-(6-fluoro-2-methylpyridin-3-yl)(1-((1R,2S)-2-fluorocyclopropyl)-1H-1,2,3-triazol-4-yl)methyl)amino)-4-(neopentylamino)quinoline-3,8-dicarbonitrile] | 1 nM | 24 nM | – | –
Cc1nc(F)ccc1[C@H](Nc1cc(C#N)c2ncc(C#N)c(NCC(C)(C)C)c2c1)c1cn([C@@H](C)CF)nn1 [Example 623, 6-(((S)-(6-fluoro-2-methylpyridin-3-yl)(1-((S)-1-fluoropropan-2-yl)-1H-1,2,3-triazol-4-yl)methyl)amino)-4-(neopentylamino)quinoline-3,8-dicarbonitrile] | 1 nM | 27 nM | – | –
Cc1nc(F)ccc1[C@H](Nc1cc(Cl)c2ncc(C#N)c(NCC(C)(C)C)c2c1)c1cn(C2(C(=O)O)CC(F)(F)C2)nn1 [Example 624, (S)-1-(4-(((8-chloro-3-cyano-4-(neopentylamino)quinolin-6-yl)amino)(6-fluoro-2-methylpyridin-3-yl)methyl)-1H-1,2,3-triazol-1-yl)-3,3-difluorocyclobutane-1-carboxylic acid] | 11 nM | 1000 nM | – | –
Cc1nc(F)ccc1[C@H](Nc1cc(C#N)c2ncc(C#N)c(NCC(C)(C)C)c2c1)c1cn(C(C)(C)CF)nn1 [Example 625, (S)-6-(((1-{1-fluoro-2-methylpropan-2-yl)-1H-1,2,3-triazol-4-yl)(6-fluoro-2-methylpyridin-3-yl)methyl)amino)-4-(neopentylamino)quinoline-3,8-dicarbonitrile] | 2 nM | 26 nM | – | –
CC(C)(C)CNc1c(C#N)cnc2c(C#N)cc(N[C@H](c3cn(C4(C(F)(F)F)CC4)nn3)c3ccc(F)c4cnccc34)cc12 [Example 626] | – | – | 5 nM | 35 nM
CC(C)(C)CNc1c(C#N)cnc2c(C#N)cc(N[C@H](c3cn(C4(C(F)(F)F)CC4)nn3)c3ccc(F)c4ncccc34)cc12 [Example 627, (S)-6-(((8-fluoroquinolin-5-yl)(1-(1-(trifluoro-methyl)cyclopropyl)-1H-1,2,3-triazol-4-yl)methyl)amino)-4-(neopentylamino)quinoline-3,8-dicarbonitrile] | 4 nM | 46 nM | – | –
CC(C)(C)CNc1c(C#N)cnc2c(Cl)cc(N[C@H](c3cn(C4(C(F)(F)F)CC4)nn3)c3cncc4ccccc34)cc12 [Example 628, (S)-8-chloro-6-((isoquinolin-4-yl(1-(1-(trifluoromethyl)cyclopropyl)-1H-1,2,3-triazol-4-yl)methyl)amino)-4-(neopentylamino)quinoline-3-carbonitrile] | 450 nM | 1000 nM | – | –
CC(C)(C)CNc1c(C#N)cnc2c(Cl)cc(N[C@@H](c3cnc4ccccc4c3)c3cn(C4(C(F)(F)F)CC4)nn3)cc12 [Example 629, (S)-8-chloro-4-(neopentylamino)-6-((quinolin-3-yl(1-(1-(trifluoromethyl)cyclopropyl)-1H-1,2,3-triazol-4-yl)methyl)amino)quinoline-3-carbonitrile] | 181 nM | 1000 nM | – | –
Cn1ccc2c([C@H](Nc3cc(C#N)c4ncc(C#N)c(NCC(C)(C)C)c4c3)c3cn(C4(C(F)(F)F)CC4)nn3)cccc2c1=O [Example 631, (S)-6-(((2-methyl-1-oxo-1,2-dihydroisoquinolin-5-yl)(1-(1-(trifluoromethyl)-cyclopropyl)-1H-1,2,3-triazol-4-yl)methyl)amino)-4-(neopentylamino)quinoline-3,8-dicarbonitrile] | 2 nM | 32 nM | – | –

Results, then the molecule that gave them:

IC50 (Human Cot; IC50 HTRF) | EC50 (TNFα; [1]) | IC50 (Human Cot; read-out: IC50 HTRF) | EC50 (TNFα; [2]) | SMILES
28 nM | 267 nM | – | – | Cc1nc(F)ccc1[C@H](Nc1cc(Cl)c2ncc(C#N)c(NCC(C)(C)C#N)c2c1)c1cn(C2(C(F)(F)F)CC2)nn1 [Example 633, (S)-8-chloro-4-((2-cyano-2-methylpropyl)amino)-6-(((6-fluoro-2-methylpyridin-3-yl)(1-(1-(trifluoromethyl)cyclopropyl)-1H-1,2,3-triazol-4-yl)methyl)amino)quinoline-3-carbonitrile]
– | – | 2 nM | 43 nM | Cc1nc(F)ccc1[C@H](Nc1cc(C#N)c2ncc(C#N)c(NCC(C)(C)C)c2c1)c1cn(CC(F)F)nn1 [Example 634, (S)-6-(((1-(2,2-dinuoroethyl)-1H-1,2,3-triazol-4-yl)(6-fluoro-2-methylpyridin-3-yl)methyl)amino)-4-(neopentylamino)quinoline-3,8-dicarbonitrile]
3 nM | 60 nM | – | – | Cc1nc(F)ccc1[C@H](Nc1cc(Cl)c2ncc(C#N)c(NCC(C)(C)CCl)c2c1)c1cn(C2(C(F)(F)F)CC2)nn1 [Example 635, (S)-8-chloro-4-((3-chloro-2,2-dimethylpropyl)amino)-6-(((6-fluoro-2-methylpyridin-3-yl)(1-(1-(trifluoromethyl)cyclopropyl)-1H-1,2,3-triazol-4-yl)methyl)amino)quinoline-3-carbonitrile]
69 nM | 720 nM | – | – | Cc1nc(F)ccc1[C@H](Nc1cc(Cl)c2ncc(C#N)c(NCC3(C(F)F)CC3)c2c1)c1cn(C2(C(F)(F)F)CC2)nn1 [Example 636, (S)-8-chloro-4-(((1-(difluoromethyl)cyclopropyl)-methyl)amino)-6-(((6-fluoro-2-methylpyridin-3-yl)(1-(1-(trifluoromethyl)cyclopropyl)-1H-1,2,3-triazol-4-yl)methyl)amino)quinoline-3-carbonitrile]
3 nM | 85 nM | – | – | Cc1nc(F)ccc1[C@H](Nc1cc(C#N)c2ncc(C#N)c(NCC(C)(C)CCl)c2c1)c1cn(C2(C(F)(F)F)CC2)nn1 [Example 637, (S)-4-((3-chloro-2,2-dimethylpropyl)amino)-6-(((6-fluoro-2-methylpyridin-3-yl)(1-(1-(trifluoromethyl)-cyclopropyl)-1H-1,2,3-triazol-4-yl)methyl)amino)-quinoline-3,8-dicarbonitrile]
58 nM | 858 nM | – | – | Cc1nc(F)ccc1[C@H](Nc1cc(C#N)c2ncc(C#N)c(NCC3(C(F)F)CC3)c2c1)c1cn(C2(C(F)(F)F)CC2)nn1 [Example 638, (S)-4-(((1-(difluoromethyl)-cyclopropyl)methyl)amino)-6-(((6-fluoro-2-methylpyridin-3-yl)(1-(1-(trifluoromethyl)cyclopropyl)-1H-1,2,3-triazol-4-yl)methyl)amino)quinoline-3,8-dicarbonitrile]
58 nM | 806 nM | – | – | Cc1nc([C@H](Nc2cc(Cl)c3ncc(C#N)c(NCC(C)(C)C)c3c2)c2cn(C3(C(F)F)CC3)nn2)c(C)o1 [Example 639, (S)-8-chloro-6-(((1-(1-(difluoromethyl)cyclopropyl)-1H-1,2,3-triazol-4-yl)(2,5-dimethyloxazol-4-yl)methyl)amino)-4-(neopentylamino)quinoline-3-carbonitrile]
3 nM | 65 nM | – | – | Cc1ncsc1[C@H](Nc1cc(C#N)c2ncc(C#N)c(NCC(C)(C)C)c2c1)c1cn(C2(C(F)F)CC2)nn1 [Example 640, (R)-6-(((1-(1-(difluoromethyl)-cyclopropyl)-1H-1,2,3-triazol-4-yl)(4-methylthiazol-5-yl)methyl)amino)-4-(neopentylamino)quinoline-3,8-dicarbonitrile]
– | – | 55 nM | 811 nM | Cc1scnc1[C@H](Nc1cc(C#N)c2ncc(C#N)c(NCC(C)(C)C)c2c1)c1cn(C2(C(F)F)CC2)nn1 [Example 641]
